Source: ChEMBL document CHEMBL1629669, “Two clinical strains of Klebsiella pneumoniae carrying plasmid-borne blaIMP-4, blaSHV-12, and armA isolated at a Pediatric Center in Shanghai, China” (2009)
Converted amounts (≈) assume the structure as drawn.

What was measured:
Type in all cases: functional
Klebsiella pneumoniae [1] = assay: Antimicrobial activity against multidrug resistant Klebsiella pneumoniae isolate KpSCMC1 harboring int1, bla IMP-4, bla SHV-12, armA and sul1 gene isolated from patient with pulmonary infection by disk diffusion method
Klebsiella pneumoniae [2] = assay: Antimicrobial activity against multidrug resistant Klebsiella pneumoniae isolate KpSCMC2 harboring int1, bla IMP-4, bla SHV-12, armA and sul1 gene isolated from patient with pulmonary infection by disk diffusion method
Klebsiella pneumoniae [3] = assay: Antimicrobial activity against carbapenem susceptible Klebsiella pneumoniae isolate KpSCMC2c harboring bla SHV-12 gene isolated from patient with pulmonary infection by disk diffusion method
Klebsiella pneumoniae [4] = assay: Antimicrobial activity against multidrug resistant Klebsiella pneumoniae isolate KpSCMC1 harboring int1, bla IMP-4, bla SHV-12, armA and sul1 gene isolated from patient with pulmonary infection by Etest method
Klebsiella pneumoniae [5] = assay: Antimicrobial activity against multidrug resistant Klebsiella pneumoniae isolate KpSCMC2 harboring int1, bla IMP-4, bla SHV-12, armA and sul1 gene isolated from patient with pulmonary infection by Etest method
Klebsiella pneumoniae [6] = assay: Antimicrobial activity against carbapenem susceptible Klebsiella pneumoniae isolate KpSCMC2c harboring bla SHV-12 gene isolated from patient with pulmonary infection by Etest method

Row | Compound | inhibition zone (IZ) (Klebsiella pneumoniae [1]) [mm] | inhibition zone (IZ) (Klebsiella pneumoniae [2]) [mm] | inhibition zone (IZ) (Klebsiella pneumoniae [3]) [mm] | MIC (Klebsiella pneumoniae [4]) [µg/mL] | MIC (Klebsiella pneumoniae [5]) [µg/mL] | MIC (Klebsiella pneumoniae [6]) [µg/mL]
1 | C[C@@H](O)[C@H]1C(=O)N2C(C(=O)O)=C(SCCNC=N)C[C@H]12 [IMIPENEM ANHYDROUS] | 21 | 20 | 26 | 3 (≈ 10 µM) | 2 (≈ 6.68 µM) | 0.064 (≈ 0.214 µM)
2 | C[C@@H](O)[C@H]1C(=O)N2C(C(=O)O)=C(S[C@@H]3CN[C@H](C(=O)N(C)C)C3)[C@H](C)[C@H]12 [MEROPENEM] | 14 | 13 | 27 | 8 (≈ 20.9 µM) | 4 (≈ 10.4 µM) | 0.25 (≈ 0.652 µM)
